Reference: ChEMBL document CHEMBL1132455, “Retention of immunosuppressant activity in an ascomycin analogue lacking a hydrogen-bonding interaction with FKBP12” (J Med Chem, 1999)

How the values were obtained:
[1] = tested on: Rattus norvegicus; assay: The compound was tested in vivo for lympho-proliferation,against popliteal lymph node(inbred male rats) after i.p. administration; assay type: functional; details: ip
[2] = organism: Homo sapiens; assay: Immunosuppressive activity examined in an in vitro model of allogenic T-lymphocyte activation (by MLR assay); assay type: functional
[3] = target: Peptidyl-prolyl cis-trans isomerase FKBP1A (Homo sapiens, UniProt P62942); assay: The compound was tested for binding affinity against human FK506 binding protein 12
Chain of Peptidyl-prolyl cis-trans isomerase FKBP1A (P62942 whole entry): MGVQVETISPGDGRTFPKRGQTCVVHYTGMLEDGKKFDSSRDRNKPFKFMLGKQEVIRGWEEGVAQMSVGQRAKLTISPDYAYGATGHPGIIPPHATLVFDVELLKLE

[4] = organism: Homo sapiens; assay: Immunosuppressive activity examined in an in vitro model of allogenic T-lymphocyte activation(by MLR assay); assay type: functional

Structure (SMILES): CC[C@@H]1/C=C(\C)C[C@H](C)C[C@H](OC)[C@H]2O[C@@](O)(C(=O)C(=O)N3CCCC[C@H]3C(=O)O[C@H](/C(C)=C/[C@@H]3CC[C@@H](O)[C@H](OC)C3)[C@H](C)CCC1=O)[C@H](C)C[C@@H]2OC
- ED50 [1]: 0.65 mg/kg/day
- IC50 [2]: 0.15 nM
- IC50 [3]: 0.77 nM

Structure (SMILES): C=CC[C@@H]1/C=C(\C)C[C@H](C)C[C@H](OC)[C@H]2O[C@@](O)(C(=O)C(=O)N3CCCC[C@H]3C(=O)O[C@H](/C(C)=C/[C@@H]3CC[C@@H](O)[C@H](OC)C3)[C@H](C)[C@@H](O)CC1=O)[C@H](C)C[C@@H]2OC [TACROLIMUS ANHYDROUS]
- ED50 [1]: 0.15 mg/kg/day
- IC50 [2]: 0.23 nM

Structure (SMILES): CC[C@@H]1/C=C(\C)C[C@H](C)C[C@H](OC)[C@H]2O[C@@](O)(C(=O)C(=O)N3CCCC[C@H]3C(=O)O[C@H](/C(C)=C/[C@@H]3CC[C@@H](O)[C@H](OC)C3)[C@H](C)/C=C/C1=O)[C@H](C)C[C@@H]2OC
- IC50 [4]: 22 nM
- IC50 [3]: 529 nM

Structure (SMILES): CC[C@@H]1/C=C(\C)C[C@H](C)C[C@H](OC)[C@H]2O[C@@](O)(C(=O)C(=O)N3CCCC[C@H]3C(=O)O[C@H](/C(C)=C/[C@@H]3CC[C@@H](O)[C@H](OC)C3)[C@H](C)[C@@H](O)CC1=O)[C@H](C)C[C@@H]2OC [ASCOMYCIN]
- ED50 [1]: 0.32 mg/kg/day
- IC50 [2]: 0.26 nM
